One experiment deals with T1, TANK-2 enzyme (Homo sapiens, UniProt Q9H2K2).
T1 construct: made in house
T1 sequence (Q9H2K2 1-1166): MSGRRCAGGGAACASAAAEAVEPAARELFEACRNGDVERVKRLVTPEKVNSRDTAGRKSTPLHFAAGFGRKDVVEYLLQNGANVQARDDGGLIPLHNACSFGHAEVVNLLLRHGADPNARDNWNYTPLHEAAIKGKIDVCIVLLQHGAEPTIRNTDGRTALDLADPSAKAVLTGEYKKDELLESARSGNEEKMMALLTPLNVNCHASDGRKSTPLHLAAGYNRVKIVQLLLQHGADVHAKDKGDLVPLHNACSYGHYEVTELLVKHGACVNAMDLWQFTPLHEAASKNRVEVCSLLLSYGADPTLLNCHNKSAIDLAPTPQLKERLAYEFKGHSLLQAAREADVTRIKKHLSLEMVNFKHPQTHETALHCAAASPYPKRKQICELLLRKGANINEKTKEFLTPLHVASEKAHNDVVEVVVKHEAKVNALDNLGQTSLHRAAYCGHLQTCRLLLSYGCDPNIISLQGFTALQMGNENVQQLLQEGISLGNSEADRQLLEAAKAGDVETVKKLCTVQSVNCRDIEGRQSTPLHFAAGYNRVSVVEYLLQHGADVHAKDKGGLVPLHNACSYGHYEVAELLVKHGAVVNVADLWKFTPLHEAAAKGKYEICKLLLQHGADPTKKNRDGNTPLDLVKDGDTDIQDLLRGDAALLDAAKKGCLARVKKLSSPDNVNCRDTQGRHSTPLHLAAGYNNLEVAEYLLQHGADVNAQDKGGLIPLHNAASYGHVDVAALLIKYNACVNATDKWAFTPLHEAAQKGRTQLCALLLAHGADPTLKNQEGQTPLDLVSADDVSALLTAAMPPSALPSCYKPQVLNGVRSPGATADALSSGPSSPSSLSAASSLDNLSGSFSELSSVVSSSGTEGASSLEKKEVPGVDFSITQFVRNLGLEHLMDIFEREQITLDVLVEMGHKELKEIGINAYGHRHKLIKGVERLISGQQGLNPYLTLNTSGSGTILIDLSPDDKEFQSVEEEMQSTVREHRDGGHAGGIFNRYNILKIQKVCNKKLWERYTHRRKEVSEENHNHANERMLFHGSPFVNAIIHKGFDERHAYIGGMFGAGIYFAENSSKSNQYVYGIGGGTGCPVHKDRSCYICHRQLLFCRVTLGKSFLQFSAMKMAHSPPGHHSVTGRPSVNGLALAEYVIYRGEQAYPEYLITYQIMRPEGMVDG
The experiment can be described thus: In vitro Scintillation Proximity Assay (SPA) for TANK-2 inhibitory activity. It counts as biochemical. As to conditions: read-out: in vitro SPA assay TANK-2 pIC50 (converted). The gist of the method:
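Results are pIC50 values, with IC50 interpolated linearly around 50% of blank-subtracted control cpm. They come from a scintillation proximity read of TANK-2 (8 μg/ml) self-modification with [3H]-NAD+/NAD, incubated 120 min at room temperature in pH 7.4 Tris buffer containing MgCl2 and DTT. Compounds were first screened at 10^−5 M.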
Background: In a scintillation proximity assay essentially only radioactivity close to the scintillant gives light.

In the next experiment the test system is PC3 cells. The experiment can be described thus: EB1 Comet (microtubule disruption) assay. It counts as cell-based, human. As to conditions: Homo sapiens, PC-3, 1 h, 1 hour treatment, read-out: EB1 pLAC (converted). The gist of the method:
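Readout is loss of Eb1 plus-end foci, scored by immunofluorescence microscopy, in PC3 cells after 1 h compound treatment at 37 °C with 0.6% final DMSO. LAC is defined as the lowest concentration leaving at least 50% of cells without Eb1 foci.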

The values that follow come from patent US8778966B2, “Quinolinone derivatives as PARP and tank inhibitors” (Janssen Pharmaceutica, NV, priority 2007, dated 2014).

For the molecule `CCc1cc2ccc(C(C)(C#N)CCOc3ccc(Br)cc3)cc2[nH]c1=O` (stereo not drawn) [Compound 160], the IC50 on TANK-2 enzyme is 316 nM. Also, the minimal effective concentration in the experiment on PC3 cells was 0.316 µM.
Regarding `CCc1cc2ccc(C(C)(C#N)CCOc3ccc(C#N)cc3)cc2[nH]c1=O` (stereo not drawn) [Compound 161], at TANK-2 enzyme, the IC50 is 158 nM. Also, the minimal effective concentration with PC3 cells is 0.316 µM.
Regarding `CCc1cc2ccc(C(C)(C#N)Cc3cccc(CCC#N)c3)cc2[nH]c1=O` (stereo not drawn) [Compound 165], the IC50 at TANK-2 enzyme was 79.4 nM. Besides, the minimal effective concentration in the experiment with PC3 cells is 1 µM.
